Results published in PubChem BioAssay (NCI).
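Test compounds were applied to cells in 96-well plates for 48 hours at 5 doses. The concentration for 50% growth inhibition is given as GI50. TGI denotes the concentration required for complete inhibition of growth.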

Legend:
Assay in all cases: NCI tumour cell line growth inhibition, 48 h
K-562 leukemia = test system: K-562 leukemia
MOLT-4 leukemia = test system: MOLT-4 leukemia
HCT-116 colon = test system: HCT-116 colon
SF-539 CNS = test system: SF-539 CNS
LOX IMVI melanoma = test system: LOX IMVI melanoma
ACHN renal = test system: ACHN renal
SF-295 CNS = test system: SF-295 CNS
HCC-2998 colon = test system: HCC-2998 colon
T-47D breast = test system: T-47D breast
PC-3 prostate = test system: PC-3 prostate

**Q.** Which results are given for CCc1ccccc1NC(=O)/C(N=O)=C(/C)O?
**A.** TGI (K-562 leukemia): > 100 µM; TGI (MOLT-4 leukemia): > 100 µM; TGI (HCT-116 colon): > 100 µM; TGI (SF-539 CNS): > 100 µM; TGI (LOX IMVI melanoma): > 100 µM; TGI (ACHN renal): > 100 µM; TGI (SF-295 CNS): > 100 µM; TGI (HCC-2998 colon): > 100 µM

**Q.** With C=C1c2ccoc2C[C@H]2[C@H]1CC[C@@]1(O)[C@@](C)(C(=O)OC)CCC[C@]21C as the molecule, how does the GI50 (T-47D breast) read?
**A.** 27.3 µM

**Q.** What about the TGI (T-47D breast) of the same molecule?
**A.** > 100 µM

**Q.** What about the GI50 (MOLT-4 leukemia) of the same molecule?
**A.** 15.6 µM

**Q.** And the TGI (MOLT-4 leukemia)?
**A.** 43.3 µM

**Q.** And the GI50 (PC-3 prostate)?
**A.** 27.6 µM

**Q.** What about the TGI (PC-3 prostate) of the same molecule?
**A.** > 100 µM

**Q.** And the GI50 (HCT-116 colon)?
**A.** 15.7 µM

**Q.** And the TGI (HCT-116 colon)?
**A.** 31.2 µM

**Q.** What about the GI50 (SF-539 CNS) of the same molecule?
**A.** 69.3 µM

**Q.** And the TGI (SF-539 CNS)?
**A.** > 100 µM

**Q.** What about the GI50 (LOX IMVI melanoma) of the same molecule?
**A.** 17.6 µM

**Q.** What about the TGI (LOX IMVI melanoma) of the same molecule?
**A.** 36.7 µM

**Q.** What about the GI50 (ACHN renal) of the same molecule?
**A.** 16 µM

**Q.** What about the TGI (ACHN renal) of the same molecule?
**A.** 40.9 µM

**Q.** What about the GI50 (SF-295 CNS) of the same molecule?
**A.** 27.9 µM

**Q.** What about the TGI (SF-295 CNS) of the same molecule?
**A.** 81.9 µM

**Q.** And the GI50 (HCC-2998 colon)?
**A.** 29.4 µM

**Q.** And the TGI (HCC-2998 colon)?
**A.** 71 µM

**Q.** Which results are given for COc1cnc2c(c1)C(=O)c1c-2n(CCCNC2=NCCS2)c(=O)c2cc(Cl)ccc12?
**A.** GI50 (MOLT-4 leukemia): 0.0454 µM; TGI (MOLT-4 leukemia): 1.71 µM; GI50 (HCT-116 colon): 0.352 µM; TGI (HCT-116 colon): 2.19 µM; GI50 (SF-539 CNS): 0.475 µM; TGI (SF-539 CNS): 1.8 µM; GI50 (ACHN renal): 0.0487 µM; TGI (ACHN renal): 1.49 µM; GI50 (SF-295 CNS): 0.0776 µM; TGI (SF-295 CNS): 1.07 µM; GI50 (HCC-2998 colon): 1.36 µM; TGI (HCC-2998 colon): 2.68 µM

**Q.** How did the TGI (K-562 leukemia) turn out when CC1(C)CC2CC(CC(C)(C)C2=O)C1=O was run?
**A.** > 100 µM

**Q.** What about the TGI (MOLT-4 leukemia) of the same molecule?
**A.** > 100 µM

**Q.** What about the TGI (HCT-116 colon) of the same molecule?
**A.** > 100 µM

**Q.** What about the TGI (SF-539 CNS) of the same molecule?
**A.** > 100 µM

**Q.** And the TGI (LOX IMVI melanoma)?
**A.** > 100 µM

**Q.** And the TGI (ACHN renal)?
**A.** > 100 µM

**Q.** And the TGI (SF-295 CNS)?
**A.** > 100 µM

**Q.** What about the TGI (HCC-2998 colon) of the same molecule?
**A.** > 100 µM

**Q.** Which results are given for C[C@]12CC[C@@H]3c4ccc(O)cc4CC[C@H]3[C@@H]1Cc1cnc(N)nc12?
**A.** GI50 (K-562 leukemia): 7.97 µM; TGI (K-562 leukemia): 42.6 µM; GI50 (MOLT-4 leukemia): 13 µM; TGI (MOLT-4 leukemia): 41.1 µM; GI50 (PC-3 prostate): 15.7 µM; TGI (PC-3 prostate): 35.9 µM; GI50 (HCT-116 colon): 23.6 µM; TGI (HCT-116 colon): 69.2 µM; GI50 (SF-539 CNS): 14.8 µM; TGI (SF-539 CNS): 30.5 µM; GI50 (LOX IMVI melanoma): 17.4 µM; TGI (LOX IMVI melanoma): 31.3 µM; GI50 (ACHN renal): 21.1 µM; TGI (ACHN renal): 51.3 µM; GI50 (SF-295 CNS): 15.2 µM; TGI (SF-295 CNS): 42.7 µM; GI50 (HCC-2998 colon): 9.36 µM; TGI (HCC-2998 colon): 26.1 µM

**Q.** How did the TGI (K-562 leukemia) turn out when CCc1cccc(C)c1NC(=O)C1=C(C)NC(C)=C(C(=O)Nc2c(C)cccc2CC)C1c1ccc2c(c1)OCO2 was run?
**A.** 92.3 µM

**Q.** What about the TGI (MOLT-4 leukemia) of the same molecule?
**A.** 72.8 µM

**Q.** And the TGI (SF-539 CNS)?
**A.** 38.6 µM

**Q.** And the TGI (LOX IMVI melanoma)?
**A.** 42.5 µM

**Q.** What about the TGI (ACHN renal) of the same molecule?
**A.** 29.6 µM

**Q.** What about the TGI (SF-295 CNS) of the same molecule?
**A.** 43.7 µM

**Q.** And the TGI (HCC-2998 colon)?
**A.** 33.8 µM

**Q.** How did the GI50 (T-47D breast) turn out when COc1ccc(N(/C=C/C(=O)C(F)(F)F)CC(=O)c2ccc(F)cc2)cc1 was run?
**A.** 32.1 µM

**Q.** What about the TGI (T-47D breast) of the same molecule?
**A.** > 100 µM

**Q.** What about the GI50 (MOLT-4 leukemia) of the same molecule?
**A.** 16.1 µM

**Q.** And the TGI (MOLT-4 leukemia)?
**A.** 43.6 µM

**Q.** And the GI50 (PC-3 prostate)?
**A.** 23.1 µM

**Q.** What about the TGI (PC-3 prostate) of the same molecule?
**A.** 85.7 µM

**Q.** And the GI50 (HCT-116 colon)?
**A.** 14.7 µM

**Q.** And the TGI (HCT-116 colon)?
**A.** 27.9 µM

**Q.** What about the GI50 (SF-539 CNS) of the same molecule?
**A.** 21.4 µM

**Q.** What about the TGI (SF-539 CNS) of the same molecule?
**A.** 52 µM

**Q.** And the GI50 (LOX IMVI melanoma)?
**A.** 16.4 µM

**Q.** What about the TGI (LOX IMVI melanoma) of the same molecule?
**A.** 39.1 µM

**Q.** What about the GI50 (ACHN renal) of the same molecule?
**A.** 16.3 µM

**Q.** What about the TGI (ACHN renal) of the same molecule?
**A.** 41.2 µM

**Q.** And the GI50 (SF-295 CNS)?
**A.** 27.4 µM

**Q.** And the TGI (SF-295 CNS)?
**A.** 91 µM

**Q.** What about the GI50 (HCC-2998 colon) of the same molecule?
**A.** 21.4 µM

**Q.** What about the TGI (HCC-2998 colon) of the same molecule?
**A.** 38.9 µM

**Q.** With COc1ccc2nc3cc(Cl)ccc3c(SCC(=O)Nc3ccccc3-c3ccccc3NC(=O)CSc3c4ccc(Cl)cc4nc4ccc(OC)cc34)c2c1 as the molecule, how does the TGI (K-562 leukemia) read?
**A.** > 100 µM

**Q.** And the TGI (MOLT-4 leukemia)?
**A.** > 100 µM

**Q.** And the TGI (HCT-116 colon)?
**A.** > 100 µM

**Q.** What about the TGI (SF-539 CNS) of the same molecule?
**A.** > 100 µM

**Q.** What about the TGI (LOX IMVI melanoma) of the same molecule?
**A.** > 100 µM

**Q.** What about the TGI (ACHN renal) of the same molecule?
**A.** > 100 µM

**Q.** What about the TGI (SF-295 CNS) of the same molecule?
**A.** > 100 µM

**Q.** And the TGI (HCC-2998 colon)?
**A.** > 100 µM

**Q.** Which results are given for CCCN(CCC)C(=O)C(=O)c1c(N)[nH]n(-c2ccccc2)c1=O?
**A.** TGI (K-562 leukemia): > 100 µM; TGI (MOLT-4 leukemia): > 100 µM; TGI (HCT-116 colon): > 100 µM; TGI (SF-539 CNS): > 100 µM; TGI (LOX IMVI melanoma): > 100 µM; TGI (ACHN renal): > 100 µM; TGI (SF-295 CNS): > 100 µM; TGI (HCC-2998 colon): > 100 µM
